“Also recorded” adds a separate entry of the source.
Legend:
[1] = test system: 1-methyl-4-phenyl-1,2,3,6-tetrahydropyridine-treated primates; conditions: monkey studies; Iravani et al. 2003; cited from earlier work
[2] = test system: rodent models of depression; conditions: in vivo; cited from earlier work
[3] = molecular target: T1, human serotonin HT1a receptor (Homo sapiens, UniProt P08908); assay: GTPγS assay, agonist testing, 5-HT1a; format: biochemical; conditions: human recombinant cell lines; FIG. 1; relevant plasma concentration (<0.5 μM)
T1 construct: expressed in transfected cells; host or cells: CHO-K1
T1 sequence (P08908 1-422): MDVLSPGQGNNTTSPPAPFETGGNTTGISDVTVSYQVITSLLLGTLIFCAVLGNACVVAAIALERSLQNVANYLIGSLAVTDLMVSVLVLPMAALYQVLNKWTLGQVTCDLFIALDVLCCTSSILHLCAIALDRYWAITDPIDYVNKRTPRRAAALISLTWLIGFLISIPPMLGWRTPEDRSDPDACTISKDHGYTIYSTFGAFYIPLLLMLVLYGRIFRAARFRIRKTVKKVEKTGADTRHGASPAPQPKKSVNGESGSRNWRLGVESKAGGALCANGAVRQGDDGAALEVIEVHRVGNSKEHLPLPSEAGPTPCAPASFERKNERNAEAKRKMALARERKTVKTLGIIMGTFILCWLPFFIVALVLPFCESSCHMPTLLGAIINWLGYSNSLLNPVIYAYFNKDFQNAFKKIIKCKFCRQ
Method: (§1) Eltoprazine was tested for activity on the human serotonin HT1a and 5-HT1b receptors using a GTPγS assay. Recombinant membranes obtained from CHO-K1 cells expressing either the 5-HT1a or 5-HT1b receptors were mixed with GDP (volume:volume) and incubated for at least 15 min on ice. In parallel, GTPγ[35S] was mixed with the beads (volume:volume) just before starting the reaction. The following reagents were successively added in the wells of an Optiplate (Perkin Elmer): 50 μl of test compound, 20 μl of the membranes:GDP mix, 10 μl of assay buffer (for agonist testing) and 20 μl of the GTPγ[35S]:beads mix. The plates were covered with a top seal, shaken on an orbital shaker for 2 min, and then incubated for 1 hour at room temperature. Then the plates were centrifuged for 10 min at 2000 rpm, incubated at room temperature 1 hour and counted for 1 min/well with a PerkinElmer TopCount reader.

[4] = molecular target: T2, 5-HT2c non-edited (ne) recombinant receptor (Homo sapiens, UniProt P28335); assay: Aequorin cell line functional assay, 5-HT2c non-edited; format: cell-based; conditions: human recombinant cell lines; FIG. 1; relevant plasma concentration (<0.5 μM)
T2 construct: expressed in transfected cells
T2 sequence (P28335 33-458): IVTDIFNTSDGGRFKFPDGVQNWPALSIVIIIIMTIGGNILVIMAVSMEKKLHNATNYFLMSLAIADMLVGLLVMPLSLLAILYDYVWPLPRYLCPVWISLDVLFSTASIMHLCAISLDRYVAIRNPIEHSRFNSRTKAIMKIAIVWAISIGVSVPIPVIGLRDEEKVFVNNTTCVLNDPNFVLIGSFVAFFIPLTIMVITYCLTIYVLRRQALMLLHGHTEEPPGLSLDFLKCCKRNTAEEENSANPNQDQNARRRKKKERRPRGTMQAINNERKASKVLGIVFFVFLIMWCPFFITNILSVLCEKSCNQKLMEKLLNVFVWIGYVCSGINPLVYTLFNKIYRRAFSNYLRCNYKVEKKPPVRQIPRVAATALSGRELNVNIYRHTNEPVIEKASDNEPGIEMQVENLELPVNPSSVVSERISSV
Method: (§2) Aequorin cell lines expressing the 5-HT2a, 5-HT2b and 5-HT2c non-edited (ne) recombinant receptors were used to evaluate the functional activity of eltoprazine. Aequorin cells grown 18 hours prior to the test in media without antibiotics were detached by gentle flushing with PBS-EDTA (5 mM EDTA), recovered by centrifugation and resuspended in “assay buffer” (DMEM/HAM's F12 with HEPES+0.1% BSA protease free). Cells were incubated at room temperature for at least 4 h with Coelenterazine h (Molecular Probes). The reference agonist used were 5-HT and a-methyl-5-HT. For agonist testing, 50 μl of cell suspension were injected on 50 μl of test compound or reference agonist plated in a 96-well plate. The resulting emission of light was recorded using the Hamamatsu Functional Drug Screening System 6000 (FDSS 6000).

[5] = molecular target: T3, 5-HT2a recombinant receptor (Homo sapiens, UniProt P28223); assay: Aequorin cell line functional assay, 5-HT2a; format: cell-based; conditions: human recombinant cell lines; FIG. 1; relevant plasma concentration (<0.5 μM)
T3 construct: expressed in transfected cells
T3 sequence (P28223 whole entry): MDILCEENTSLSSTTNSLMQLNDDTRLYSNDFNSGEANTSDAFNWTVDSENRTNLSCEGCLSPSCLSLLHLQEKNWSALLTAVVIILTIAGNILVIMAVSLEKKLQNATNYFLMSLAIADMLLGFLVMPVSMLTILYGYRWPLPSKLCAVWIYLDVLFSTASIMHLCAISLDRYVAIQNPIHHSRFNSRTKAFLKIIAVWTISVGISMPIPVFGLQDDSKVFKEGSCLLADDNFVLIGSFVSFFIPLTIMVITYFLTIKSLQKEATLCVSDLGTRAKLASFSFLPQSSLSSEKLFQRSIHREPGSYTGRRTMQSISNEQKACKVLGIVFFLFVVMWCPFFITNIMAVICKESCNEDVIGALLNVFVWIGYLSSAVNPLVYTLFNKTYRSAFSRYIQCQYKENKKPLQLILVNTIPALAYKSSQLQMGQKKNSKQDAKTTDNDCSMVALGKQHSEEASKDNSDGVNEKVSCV
Method: as §2

[6] = molecular target: T4, human 5-HT1b receptor (Homo sapiens, UniProt P28222); assay: GTPγS assay, agonist testing, 5-HT1b; format: biochemical; conditions: human recombinant cell lines; FIG. 1; relevant plasma concentration (<0.5 μM)
T4 construct: expressed in transfected cells; host or cells: CHO-K1
T4 sequence (P28222 whole entry): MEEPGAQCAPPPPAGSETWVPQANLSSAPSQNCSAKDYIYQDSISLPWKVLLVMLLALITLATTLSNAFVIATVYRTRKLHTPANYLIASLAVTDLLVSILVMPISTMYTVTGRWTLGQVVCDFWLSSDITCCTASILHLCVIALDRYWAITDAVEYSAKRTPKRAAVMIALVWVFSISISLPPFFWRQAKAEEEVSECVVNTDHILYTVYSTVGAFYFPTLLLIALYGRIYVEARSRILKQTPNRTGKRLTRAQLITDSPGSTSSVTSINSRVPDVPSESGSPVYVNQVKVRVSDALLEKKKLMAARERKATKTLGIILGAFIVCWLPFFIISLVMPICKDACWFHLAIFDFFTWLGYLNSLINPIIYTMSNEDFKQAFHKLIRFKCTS
Method: as §1

[7] = test system: unilaterally 6-OHDA-lesioned rats; assay: L-DOPA-induced dyskinesia (AIM scores) in 6-OHDA-lesioned rat model of Parkinson's disease; format: in vivo; conditions: eltoprazine hydrochloride 0.08, 0.3, 1.25 and 5 mg/kg s.c.; after 21 days of L-DOPA; FIG. 2
Method: (§3) Male Sprague Dawley rats (Elevage Janvier, Le Genest Saint Isle, France) weighing between 220 and 250 g at the beginning of the study are used in these experiments. They are housed under a 12-hr light/dark cycle with free access to standard pelleted food and tap water. Animal treatment and experimental procedures are approved by local ethical committees (Regierungspräsidium Darmstadt; Germany).
(§4) Dopamine-denervating lesions are performed on rats anaesthetized with a 5:1 mixture of ketamine and xylazine (1 ml/kg, i.p.). […] The animals' turning behaviour is recorded in an automated rotometer (TSE Rotameter System, TSE—Systems GmbH, Bad Homburg, Germany) over a 90-min period after the intraperitoneal (i.p.) injection of 2.5 mg/kg dexamphetamine sulphate dissolved in saline. […]
In order to evaluate a the severity of LID, AIMs are recorded every second day as described by Cenci et al. (1998). […]
Eur J Neurosci 1998 10:2694-2706. […] Each rat is scored on a severity scale from 0 to 4 based on its frequency and persistence (1=occasional; 2=frequent; 3=continuous but interrupted by sensory distraction; 4=continuous, severe and not interrupted by sensory distraction). […]

[8] = molecular target: dopamine D2 receptor (Homo sapiens, UniProt P14416); assay: Affinity for dopamine D2 receptor; format: binding
Sequence of dopamine D2 receptor (P14416 whole entry, species assumed): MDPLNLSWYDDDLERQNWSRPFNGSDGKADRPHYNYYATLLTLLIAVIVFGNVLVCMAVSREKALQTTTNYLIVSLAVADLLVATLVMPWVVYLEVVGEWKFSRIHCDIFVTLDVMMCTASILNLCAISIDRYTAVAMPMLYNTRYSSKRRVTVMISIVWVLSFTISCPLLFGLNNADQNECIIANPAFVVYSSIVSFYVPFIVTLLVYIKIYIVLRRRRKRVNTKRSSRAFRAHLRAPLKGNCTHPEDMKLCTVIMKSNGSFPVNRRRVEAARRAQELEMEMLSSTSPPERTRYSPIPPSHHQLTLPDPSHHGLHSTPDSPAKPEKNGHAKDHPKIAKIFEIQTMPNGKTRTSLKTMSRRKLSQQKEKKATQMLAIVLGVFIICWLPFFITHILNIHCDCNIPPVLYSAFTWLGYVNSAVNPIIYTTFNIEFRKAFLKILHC

[9] = test system: unilaterally 6-OHDA-lesioned rats; assay: Turning behaviour induced by high dose of L-DOPA in 6-OHDA-lesioned rats; format: in vivo, rat; conditions: 0.3, 1.25 and 5 mg/kg, 30 min before test, FIG. 3
Method: as §3, §4
In order to evaluate the effect of eltoprazine on parkinsonian symptoms and its interaction with L-DOPA, rotational behaviour is evaluated. The numbers of ipsilateral and contralateral turns are recorded in an automated rotometer (TSE Rotameter System, TSE—Systems GmbH, Bad Homburg, Germany) over a period of 180 min. […]

Compound: COc1ccc2[nH]cc(C3=CCNCC3)c2c1 [Ru-24969]
- effect on motor symptoms / side effects [1]: worsening of motor symptoms and/or development of side effects

Compound: c1cc2c3c(c1)[C@H]1CCC[C@H]1N3CCNC2 [WAY-163909]
- effect in rodent models of depression [2]: positive effects

Compound: C[C@H](N)Cn1ccc2cc(F)c(Cl)cc21 [Ro 60-0175]
- effect in rodent models of depression [2]: positive effects

Compound: c1cc2c(c(N3CCNCC3)c1)OCCO2 [eltoprazine, 1-(2,3-dihydro-1,4-benzodioxin-5-yl)piperazine]
- functional action on 5-HT1a receptor [3]: weak agonistic action
- functional action on 5-HT2c receptor [4]: agonist
- functional action on 5-HT2a receptor [5]: partial agonistic action
- functional action on 5-HT1b receptor [6]: partial agonistic action
- effect on AIM scores (L-DOPA-induced dyskinesia) [7]: significantly reverses, in a dose-dependent manner
- affinity for the dopamine D2 receptor [8]: devoid of significant affinity
- interference with the antiparkinsonian effect of L-DOPA (turning behaviour) [9]: does not interfere with the antiparkinsonian effect of L-DOPA; also recorded: does not interfere with the anti-parkinsonian effect of L-DOPA

Compound: COc1ccc2c(c1O[C@H]1CCNC1)CCC2 [Org 37684]
- effect in rodent models of depression [2]: positive effects

Compound: CCc1cc2c(ccc3cnn(C[C@H](C)N)c32)o1 [YM348]
- effect in rodent models of depression [2]: positive effects

Compound: Clc1cccc(N2CCNCC2)c1 [mCPP]
- effect in rodent models of depression [2]: positive effects
